Measurements as given in paper PMC9813109, “Phase I dose-escalation study of milademetan in patients with relapsed or refractory acute myeloid leukemia” (International Journal of Hematology, 2022).
“Also recorded” adds a separate entry of the source.

How the values were obtained:
Platelet = test system: Platelet; design: species or system human; conditions: in vivo
Excerpt: Patients were followed up until the AEs resolved.

patients with R/R AML = test system: patients with R/R AML
Method: This phase I, open-label, and dose-escalation study conducted at eight centers in Japan recruited patients with R/R AML. Four fixed-dose milademetan schedules were planned (Supplementary Fig. 1A). Increases in the milademetan dose were guided by the modified continual reassessment method (mCRM), with a planned maximum dose of 160 mg/day (Supplementary Fig. 1B). Each cohort (90, 120, and 160 mg) consisted of three to six patients. The first cycle was defined as the dose-limiting toxicity (DLT) evaluation period where patients required hospitalization. The number of treatment cycles was not specified, and the study treatment for each patient was continued unless the discontinuation criteria were met.
In this study, we only assessed the patients with schedule A‒milademetan was administered once daily on days 1–14 followed by a 14-day rest in a 28-day cycle.
Relative dose intensity (in percentage) was calculated as a proportion of dose intensity/planned dose intensity (proportion of dose administered/total treatment duration). Safety assessments were completed by documenting the AEs, ECOG PS, laboratory data, body weight, vital signs, and the results of 12 lead ECGs. Serious adverse events (SAEs) were defined as any AEs that caused mortality, were life-threatening, required hospitalization or prolonged existing hospitalization, caused disability or incapacity, or represented other medical conditions. Patients were followed up until the AEs resolved.
Patients were evaluated for DLT during the first 28 days of cycle 1, defined as any nonhematological AEs of grade ≥ 3 unless attributed to the primary disease course, complications, or concomitant medications. Nonhematological toxicities classified as DLTs were grade 4 AST/ALT, grade 3 AST/ALT lasting ≥ 3 days, grade 3 AST/ALT with grade ≥ 2 total bilirubin, or an inability to complete at least 75% of the prescribed milademetan doses in cycle 1 (28 days) due to grade ≥ 2 events. Hematological toxicities classified as DLTs included failure to recover neutrophil and platelet counts to ≥ 500/mm^3 and ≥ 20,000/mm^3, respectively, that delayed the initiation of cycle 2 for > 2 weeks. DLT evaluation findings were used to determine the MTD. AEs that were not classified as DLTs included grade 3 fatigue of < 3 days; grade 3 nausea or vomiting that resolved to grade ≤ 2 within 2 days after antiemetic therapy; grade 3 diarrheas that resolved to grade ≤ 2 within 2 days after antidiarrheal therapy; and alopecia, febrile neutropenia, and transient laboratory abnormalities either without symptoms or requiring continuous treatment. Examples of non-DLT AEs were grade ≥ 3 alkaline phosphatases, uric acid, amylase, lipase, or hyponatremia that resolved within 72 h of onset. The Common Terminology Criteria for Adverse Events (version 5.0) were used for grading, and each AE was coded using the Medical Dictionary for Regulatory Activities (version 21.1). Criteria for drug dose reduction or interruption are described in Supplementary material.
All patients who received at least one milademetan dose were included in the safety analysis set. […] The efficacy analysis set included all patients who received at least one milademetan dose and underwent efficacy evaluation at least once after treatment initiation. […] The biomarker analysis set included all patients who received at least one milademetan dose, whose specimens were collected for biomarker studies, and who had available measurement data. Following the first cycle, doses for subsequent cohorts were guided by an mCRM based on a Bayesian logistic regression model incorporating the escalation with the overdose control principle, clinical evaluation of the toxicological profile, and pharmacokinetics and pharmacodynamics information.

CC1(C)CCC2(CC1)N[C@@H](C(=O)N[C@@H]1CC[C@@H](C(N)=O)OC1)[C@H](c1ccnc(Cl)c1F)[C@]21C(=O)Nc2cc(Cl)ccc21 [milademetan]
Mean platelet count vs baseline (Platelet): decreased from the baseline in all cohorts
Deaths or AEs leading to treatment discontinuation (patients with R/R AML; 14 patients): No deaths or AEs leading to treatment discontinuation occurred; also recorded: No death or AEs that caused treatment discontinuation were noted
Skin infection, All grades (patients with R/R AML; Total (n = 14)): 1 (7.1) n (%)
Skin infection, Grade ≥ 3 (patients with R/R AML; Total (n = 14)): 1 (7.1) n (%)
Anemia, All grades (patients with R/R AML; human, in vivo): 5 (35.7) n (%)
Anemia, Grade ≥ 3 (patients with R/R AML; human, in vivo): 5 (35.7) n (%)
Anemia, patients with TEAE regardless of causality (patients with R/R AML; human, in vivo): 35.7%
Decreased appetite, All grades (patients with R/R AML; human, in vivo): 9 (64.3) n (%)
Decreased appetite, Grade ≥ 3 (patients with R/R AML; human, in vivo): 1 (7.1) n (%)
Decreased appetite, patients with TEAE regardless of causality (patients with R/R AML; human, in vivo): 64.3%
Diarrhea, All grades (patients with R/R AML; human, in vivo): 3 (21.4) n (%)
Diarrhea, Grade ≥ 3 (patients with R/R AML; human, in vivo): 1 (7.1) n (%)
Dry mouth, All grades (patients with R/R AML; human, in vivo): 3 (21.4) n (%)
Dry mouth, Grade ≥ 3 (patients with R/R AML; human, in vivo): 0 (0.0) n (%)
Febrile neutropenia, All grades (patients with R/R AML; human, in vivo): 7 (50.0) n (%)
Febrile neutropenia, Grade ≥ 3 (patients with R/R AML; human, in vivo): 7 (50.0) n (%)
Febrile neutropenia, patients with TEAE regardless of causality (patients with R/R AML; human, in vivo): 50%
Hypokalemia, All grades (patients with R/R AML; human, in vivo): 4 (28.6) n (%)
Hypokalemia, Grade ≥ 3 (patients with R/R AML; human, in vivo): 1 (7.1) n (%)
Leukopenia, All grades (patients with R/R AML; human, in vivo): 1 (7.1) n (%)
Leukopenia, Grade ≥ 3 (patients with R/R AML; human, in vivo): 1 (7.1) n (%)
Malaise, All grades (patients with R/R AML; human, in vivo): 3 (21.4) n (%)
Malaise, Grade ≥ 3 (patients with R/R AML; human, in vivo): 0 (0.0) n (%)
Nausea, All grades (patients with R/R AML; human, in vivo): 6 (42.9) n (%)
Nausea, Grade ≥ 3 (patients with R/R AML; human, in vivo): 0 (0.0) n (%)
Nausea, patients with TEAE regardless of causality (patients with R/R AML; human, in vivo): 42.9%
Neutropenia, All grades (patients with R/R AML; human, in vivo): 2 (14.3) n (%)
Neutropenia, Grade ≥ 3 (patients with R/R AML; human, in vivo): 2 (14.3) n (%)
Neutrophil count decreased, All grades (patients with R/R AML; human, in vivo): 1 (7.1) n (%)
Neutrophil count decreased, Grade ≥ 3 (patients with R/R AML; human, in vivo): 1 (7.1) n (%)
Number of patients with SAEs (patients with R/R AML; human, in vivo): 4 patients
Patients with TEAEs leading to study treatment interruption (patients with R/R AML; human, in vivo): 21.4%
Patients with a TEAE that required dose reduction (acute kidney injury) (patients with R/R AML; human, in vivo): 7.1%
Patients with grade ≥ 3 TEAEs (patients with R/R AML; human, in vivo): 71.4%
Pharyngitis, All grades (patients with R/R AML; human, in vivo): 1 (7.1) n (%)
Pharyngitis, Grade ≥ 3 (patients with R/R AML; human, in vivo): 1 (7.1) n (%)
Platelet count decreased, All grades (patients with R/R AML; human, in vivo): 3 (21.4) n (%)
Platelet count decreased, Grade ≥ 3 (patients with R/R AML; human, in vivo): 3 (21.4) n (%)
Pneumonia, All grades (patients with R/R AML; human, in vivo): 4 (28.6) n (%)
Pneumonia, Grade ≥ 3 (patients with R/R AML; human, in vivo): 3 (21.4) n (%)
Serious TEAE (patients with R/R AML; human, in vivo): 4 (28.6) n (%)
Stomatitis, All grades (patients with R/R AML; human, in vivo): 3 (21.4) n (%)
Stomatitis, Grade ≥ 3 (patients with R/R AML; human, in vivo): 0 (0.0) n (%)
TEAE (patients with R/R AML; human, in vivo): 13 (92.9) n (%)
TEAE by CTCAE grade ≤ 2 (patients with R/R AML; human, in vivo): 3 (21.4) n (%)
TEAE by CTCAE grade ≥ 3 (patients with R/R AML; human, in vivo): 10 (71.4) n (%)
TEAE leading to treatment interruption: decreased appetite (patients with R/R AML; human, in vivo): 1 n
TEAE leading to treatment interruption: decreased neutrophil count (patients with R/R AML; human, in vivo): 1 n
TEAE leading to treatment interruption: decreased platelet count (patients with R/R AML; human, in vivo): 1 n
TEAE leading to treatment interruption: diarrhea (patients with R/R AML; human, in vivo): 1 n
TEAE leading to treatment interruption: dysgeusia (patients with R/R AML; human, in vivo): 1 n
TEAE leading to treatment interruption: febrile neutropenia (patients with R/R AML; human, in vivo): 2 n
Thrombocytopenia, All grades (patients with R/R AML; human, in vivo): 4 (28.6) n (%)
Thrombocytopenia, Grade ≥ 3 (patients with R/R AML; human, in vivo): 4 (28.6) n (%)
Tolerability (patients with R/R AML; human, in vivo): well tolerated up to 160 mg
Vomiting, All grades (patients with R/R AML; human, in vivo): 4 (28.6) n (%)
Vomiting, Grade ≥ 3 (patients with R/R AML; human, in vivo): 0 (0.0) n (%)
White blood cell count decreased, All grades (patients with R/R AML; human, in vivo): 1 (7.1) n (%)
White blood cell count decreased, Grade ≥ 3 (patients with R/R AML; human, in vivo): 1 (7.1) n (%)
Recommended dose (patients with R/R AML; human, in vivo, 28 days): 160 mg
Dose dependence of frequency of TEAEs that were grade ≥ 3, serious, or led to dose reduction/treatment interruption (patients with R/R AML; in vivo): No dose-dependent increase was observed
Grade 4 TEAE: decreased neutrophil count (patients with R/R AML; in vivo): one
Grade 4 TEAE: decreased platelet count (patients with R/R AML; in vivo): three
Grade 4 TEAE: neutropenia (patients with R/R AML; in vivo): two
Grade 4 TEAE: thrombocytopenia (patients with R/R AML; in vivo): two
Number of reported SAEs (serious TEAEs) (patients with R/R AML; in vivo): Five
Other laboratory parameters (hematology, blood chemistry, urinalysis), vital signs, ECG parameters (patients with R/R AML; in vivo): No clinically relevant changes from baseline or consistent trends were observed
SAE: febrile neutropenia (patients with R/R AML; in vivo): two
SAE: pneumonia (patients with R/R AML; in vivo): three
Maximum tolerated dose (MTD) (patients with R/R AML; up to 160 mg, QD 14/28 schedule): not reached
